According to US6372779B1, “Anti-inflammatory compounds” (Ortho Pharmaceutical Corporation, priority 1997, dated 2002):

Target: T1, human glucocorticoid receptor (hGR) (Homo sapiens, UniProt P04150)
T1 construct: made in house; host or cells: Sf21 insect cells infected with baculovirus hGR, OR IM9 lymphoblast cell line (endogenous hGR)
T1 sequence (P04150 1-777): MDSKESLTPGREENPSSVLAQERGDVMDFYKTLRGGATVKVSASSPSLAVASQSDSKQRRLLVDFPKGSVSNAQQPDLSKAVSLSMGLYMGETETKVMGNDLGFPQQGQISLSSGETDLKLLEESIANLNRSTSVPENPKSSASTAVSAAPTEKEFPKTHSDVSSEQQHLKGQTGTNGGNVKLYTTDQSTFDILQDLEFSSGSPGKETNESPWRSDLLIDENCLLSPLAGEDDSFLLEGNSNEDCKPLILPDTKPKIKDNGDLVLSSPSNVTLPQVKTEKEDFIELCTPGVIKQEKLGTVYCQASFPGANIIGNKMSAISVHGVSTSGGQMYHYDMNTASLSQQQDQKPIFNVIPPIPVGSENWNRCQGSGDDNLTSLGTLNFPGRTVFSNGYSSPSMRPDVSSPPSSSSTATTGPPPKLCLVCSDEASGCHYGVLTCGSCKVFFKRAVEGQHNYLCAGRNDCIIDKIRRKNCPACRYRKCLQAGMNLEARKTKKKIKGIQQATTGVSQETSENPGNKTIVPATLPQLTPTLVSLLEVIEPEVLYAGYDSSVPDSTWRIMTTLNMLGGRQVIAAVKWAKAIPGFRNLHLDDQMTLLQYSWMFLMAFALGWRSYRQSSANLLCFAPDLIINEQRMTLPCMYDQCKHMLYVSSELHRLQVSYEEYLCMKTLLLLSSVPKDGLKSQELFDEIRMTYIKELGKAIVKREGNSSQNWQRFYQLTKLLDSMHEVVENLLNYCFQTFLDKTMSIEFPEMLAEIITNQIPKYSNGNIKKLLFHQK
Assay: human glucocorticoid receptor binding assay (displacement of 3H triamcinolone acetonide)
Conditions: 1 μM
Method: A human glucocorticoid receptor binding assay was carried out to determine the extent to which the compounds of this invention have the ability to bind to human glucocorticoid receptors. This binding ability may be indicative of the antiinflammatory activity of the compound. The test was carried out as follows.
Human glucocorticoid receptors were prepared from either insect cells (Sf21) infected with baculovirus hGR or from a lymphoblast cell line which expresses high levels of endogenous hGR (IM9). The receptor binding reactions, with or without test compounds, were set up in 96-well microtiter plates which were previously siliconized with SIGMACOTE™, a chlorinated organopolysiloxane in heptane. The binding components, 3(H) Triamcinolone acetonide (TAA), glycerol/molybdate-containing buffer and unlabeled compounds were added to the wells using a combination of BIOMEK laboratory automation system and repeat pipettes. After four hours of incubation, the samples were precipitated with polyethylene glycol and filtered through Whatman GFIF paper using a TOMTEK cell harvester. The filter mate with 96 samples were bound to a solid-phase scintillant and directly counted in a BETAPLATE counter. […] The activity of test compounds to displace 3(H) TAA binding to hGR is also expressed as percent inhibition at 1 μM.

| Structure (SMILES) | hGR, value given as % (% inhibition) [%] |
| --- | --- |
| COc1ccccc1NC(=O)NCC(c1ccccc1)C(c1ccccc1)c1ccccc1 (stereo not shown) [Compound 51] | 32 |
| COc1ccccc1CCC(=O)NCC(c1ccccc1)C1c2ccccc2-c2ccccc21 (stereo not shown) [Compound 70] | 53 |
| COc1ccccc1CC(=O)NCC(c1ccccc1)C1c2ccccc2-c2ccccc21 (stereo not shown) [Compound 67] | 23 |
| O=C(Cc1ccccc1Cl)NCC(c1ccccc1)C1c2ccccc2-c2ccccc21 (stereo not shown) [Compound 68] | 46 |
| Cc1ccc(C(=O)NCC(c2ccccc2)C2c3ccccc3-c3ccccc32)s1 (stereo not shown) [Compound 72, N-(2-carbonyl-5-methylthiophene)-2-(9H-fluoreny-9-yl)-2-phenylethylamine] | 33 |
| CC(C)CC(=O)NCC1(c2ccccc2)CC1(c1ccccc1)c1ccccc1 (stereo not shown) [Compound 85] | 68 |
| O=C(Cc1ccccc1C(F)(F)F)NCC(c1ccccc1)C1c2ccccc2-c2ccccc21 (stereo not shown) [Compound 69] | 15 |
| O=C(NCC1(c2ccccc2)CC1(c1ccccc1)c1ccccc1)Nc1ccccc1F (stereo not shown) [Compound 93] | 11 |
| COc1ccccc1NC(=O)NCC1(c2ccccc2)CC1(c1ccccc1)c1ccccc1 (stereo not shown) [Compound 94] | 13 |
| O=C(NCc1ccccc1)NCC1(c2ccccc2)CC1(c1ccccc1)c1ccccc1 (stereo not shown) [Compound 95] | 4 |
| COc1ccccc1CC(=O)NCC(c1ccccc1)C(c1ccccc1)c1ccccc1 (stereo not shown) [Compound 5] | 62 |

Test system: human progesterone receptor (hPR)
Assay: human progesterone receptor binding assay (displacement of 3H R5020 promegestone)
Conditions: not given
Method: A human progesterone receptor binding assay was performed in order to determine selectivity of the compounds, as follows. Human progesterone receptors were prepared from either insect cells (SF21) infected with baculovirus hPR A, or from a breast cancer cell line, T47D, which expresses high levels of endogenous hPR. The receptor binding reactions, with or without test compounds, were set up in 96-well microtiter plates which were previously siliconized with SIGMACOTE. The binding components, 3(H) R5020 Promegestone, a high affinity ligand for the progesterone receptors, glycerollmolybdate-containing buffer and unlabeled compounds were added to the wells using a combination of BIOMEK laboratory automation system and repeat pipettes. After overnight incubation, the samples were precipitated with polyethylene glycol and filtered through Whatman GF/F paper using a TOMTEK cell harvester. The filter mate with 96 samples were bound to a solid-phase scintillant and directly counted in the BETAPLATE counter. Only those compounds that were active in the human glucocorticoid receptor assay set forth in Example 30 were used for progesterone receptor binding to determine cross-reactivity profiles, if any. The activity of test compounds to displace 3(H) R5020 binding to hPR is expressed as percent inhibition at the two concentrations, 10^−6 and 10^−5 Molar.

| Structure (SMILES) | hPR % inh 10 μM [%] |
| --- | --- |
| O=C(Cc1ccc(-c2ccccc2)cc1)NCC(c1ccc(C(F)(F)F)cc1)C(c1ccccc1)c1ccccc1 (stereo not shown) [Compound 156] | 19 |
| O=C(Cc1ccc(F)cc1)NCC(c1ccc(I)cc1)C(c1ccccc1)c1ccccc1 (stereo not shown) [Compound 165] | 79 |
| O=C(NCC(c1ccc(I)cc1)C(c1ccccc1)c1ccccc1)c1ccc(Cl)cc1 (stereo not shown) [Compound 173] | 72 |
| COc1cccc(C(=O)NCC(c2ccc(I)cc2)C(c2ccccc2)c2ccccc2)c1 (stereo not shown) [Compound 182] | 15 |
| O=C(Cc1ccccc1F)NCC(c1ccc(I)cc1)C(c1ccccc1)c1ccccc1 (stereo not shown) [Compound 164] | 40 |
| CN(C)c1ccc(C=CC(=O)NCC(c2ccc(C(F)(F)F)cc2)C(c2ccccc2)c2ccccc2)cc1 (stereo not shown) [Compound 159] | 12 |
| O=C(NCC(c1ccc(I)cc1)C(c1ccccc1)c1ccccc1)c1ccc(F)cc1 (stereo not shown) [Compound 176] | 68 |
| O=C(Cc1ccc(C(F)(F)F)cc1)NCC(c1ccc(I)cc1)C(c1ccccc1)c1ccccc1 (stereo not shown) [Compound 166] | 46 |
| O=C(Cc1ccc(Cl)c(Cl)c1)NCC(c1ccc(I)cc1)C(c1ccccc1)c1ccccc1 (stereo not shown) [Compound 163] | 44 |
| O=C(NCC(c1ccc(C(F)(F)F)cc1)C(c1ccccc1)c1ccccc1)c1cc(C(F)(F)F)cc(C(F)(F)F)c1 (stereo not shown) [Compound 160] | 10 |
| Cc1ccc(CC(=O)NCC(c2ccc(C(F)(F)F)cc2)C(c2ccccc2)c2ccccc2)cc1 (stereo not shown) [Compound 152] | 41 |
| CN(C)c1ccc(CC(=O)NCC(c2ccc(C(F)(F)F)cc2)C(c2ccccc2)c2ccccc2)cc1 (stereo not shown) [Compound 155] | 29 |
| O=C(NCC(c1ccc(I)cc1)C(c1ccccc1)c1ccccc1)c1ccccc1F (stereo not shown) [Compound 175] | 65 |
| O=C(NCC(c1ccc(I)cc1)C(c1ccccc1)c1ccccc1)c1ccc(C(F)(F)F)cc1 (stereo not shown) [Compound 177] | 53 |
| O=C(Cc1ccc(Cl)cc1)NCC(c1ccc(I)cc1)C(c1ccccc1)c1ccccc1 (stereo not shown) [Compound 162] | 30 |
| COc1ccc(CC(=O)NCC(c2ccc(I)cc2)C(c2ccccc2)c2ccccc2)cc1 (stereo not shown) [Compound 170] | 25 |

| Structure (SMILES) | hPR % inh 10 μM [%] |
| --- | --- |
| Cc1ccc(C(=O)NCC(c2ccc(I)cc2)C(c2ccccc2)c2ccccc2)s1 (stereo not shown) [Compound 180] | 57 |
| COc1cc(CC(=O)NCC(c2ccc(I)cc2)C(c2ccccc2)c2ccccc2)cc(OC)c1 (stereo not shown) [Compound 171] | 25 |
| O=C(NCC(c1ccc(I)cc1)C(c1ccccc1)c1ccccc1)c1ccccc1Cl (stereo not shown) [Compound 172] | 32 |
| O=C(NCC(c1ccc(I)cc1)C(c1ccccc1)c1ccccc1)c1ccc(Cl)c(Cl)c1 (stereo not shown) [Compound 174] | 50 |
| COc1cc(OC)cc(C(=O)NCC(c2ccc(I)cc2)C(c2ccccc2)c2ccccc2)c1 (stereo not shown) [Compound 183] | 42 |
| COc1ccccc1CC(=O)NCC(c1ccc(I)cc1)C(c1ccccc1)c1ccccc1 (stereo not shown) [Compound 168] | 32 |
| COc1ccccc1C(=O)NCC(c1ccc(I)cc1)C(c1ccccc1)c1ccccc1 (stereo not shown) [Compound 181] | 41 |
| O=C(Cc1cc(C(F)(F)F)cc(C(F)(F)F)c1)NCC(c1ccc(C(F)(F)F)cc1)C(c1ccccc1)c1ccccc1 (stereo not shown) [Compound 151] | 41 |
| O=C(Cc1ccc([N+](=O)[O-])cc1)NCC(c1ccc(C(F)(F)F)cc1)C(c1ccccc1)c1ccccc1 (stereo not shown) [Compound 154] | 34 |
| O=C(NCC(c1ccc(I)cc1)C(c1ccccc1)c1ccccc1)c1cc(C(F)(F)F)cc(C(F)(F)F)c1 (stereo not shown) [Compound 178] | 53 |
| COc1cccc(CC(=O)NCC(c2ccc(I)cc2)C(c2ccccc2)c2ccccc2)c1 (stereo not shown) [Compound 169] | 45 |
| O=C(Cc1ccccc1Cl)NCC(c1ccc(I)cc1)C(c1ccccc1)c1ccccc1 (stereo not shown) [Compound 161] | 42 |
| O=C(Cc1cc(C(F)(F)F)cc(C(F)(F)F)c1)NCC(c1ccc(I)cc1)C(c1ccccc1)c1ccccc1 (stereo not shown) [Compound 167] | 63 |
| O=C(NCC(c1ccc(I)cc1)C(c1ccccc1)c1ccccc1)c1cccs1 (stereo not shown) [Compound 179] | 53 |
| O=C(Cc1ccc2ccccc2c1)NCC(c1ccc(C(F)(F)F)cc1)C(c1ccccc1)c1ccccc1 (stereo not shown) [Compound 157] | 10 |
| Cc1c(CC(=O)NCC(c2ccc(C(F)(F)F)cc2)C(c2ccccc2)c2ccccc2)sc2ccc(Cl)cc12 (stereo not shown) [Compound 158] | 16 |
